System: alternansucrase
Assay: Comparison of acceptor strengths with alternansucrase, relative amount of alternan formed
Conditions: 45 μL 10% (w/v) sucrose, 45 μL 10% (w/v) acceptor, 10 μL alternansucrase, pH 5.4, room temperature; less alternan = stronger acceptor

In order of rising “Alternan (Rel. %)” value:
1. OC[C@H]1O[C@H](O[C@H]2[C@H](O)[C@@H](O)[C@H](O)O[C@@H]2CO)[C@H](O)[C@@H](O)[C@@H]1O [maltose]  11 Rel. %
2. OC[C@@H](O)[C@@H](O[C@H]1O[C@H](CO)[C@@H](O)[C@H](O)[C@H]1O)[C@H](O)[C@@H](O)CO [maltitol]  18 Rel. %
3. CO[C@H]1O[C@H](CO)[C@@H](O)[C@H](O)[C@H]1O [α-methyl-D-glucoside, α-methyl-D-glucopyranoside]  20 Rel. %
4. OC[C@H]1O[C@H](O[C@H]2[C@H](O)[C@@H](CO)OC(O)[C@@H]2O)[C@H](O)[C@@H](O)[C@@H]1O (stereo partly shown) [nigerose]  23 Rel. %
5. OC[C@H]1O[C@H](OC[C@H]2O[C@H](O[C@H]3[C@H](O)[C@@H](O)C(O)O[C@@H]3CO)[C@H](O)[C@@H](O)[C@@H]2O)[C@H](O)[C@@H](O)[C@@H]1O (stereo partly shown) [panose]  25 Rel. %
6. gentiobiose  25 Rel. %
7. OC[C@H]1O[C@H](O[C@H]2C(O)O[C@H](CO)[C@@H](O)[C@@H]2O)[C@H](O)[C@@H](O)[C@@H]1O (stereo partly shown) [kojibiose]  27 Rel. %
8. OC[C@H]1O[C@H](OC[C@H]2O[C@H](OC[C@H]3O[C@H](O[C@H]4[C@H](O)[C@@H](O)C(O)O[C@@H]4CO)[C@H](O)[C@@H](O)[C@@H]3O)[C@H](O)[C@@H](O)[C@@H]2O)[C@H](O)[C@@H](O)[C@@H]1O (stereo partly drawn) [6″-O-α-D-Glc panose]  36 Rel. %
9. OC[C@H]1O[C@@](CO)(O[C@H]2O[C@H](CO[C@H]3O[C@H](CO)[C@@H](O)[C@H](O)[C@H]3O)[C@@H](O)[C@H](O)[C@H]2O)[C@@H](O)[C@@H]1O [theanderose]  42 Rel. %
10. OC[C@H]1O[C@H](OC[C@H]2OC(O)[C@H](O)[C@@H](O)[C@@H]2O)[C@H](O)[C@@H](O)[C@@H]1O (stereo partly shown) [isomaltose]  44 Rel. %
11. OC[C@H]1O[C@H](OCC2O[C@@H](O)[C@H](O)[C@@H](O)[C@@H]2O)[C@H](O)[C@@H](O)[C@H]1O (stereo partly shown) [melibiose]  45 Rel. %
12. CCCCCCCCO[C@@H]1O[C@H](CO)[C@@H](O)[C@H](O)[C@H]1O [β-octyl D-glucoside, β-octyl-D-glucopyranoside]  52 Rel. %
13. OC[C@H]1O[C@H](OC[C@H]2O[C@H](O[C@H]3O[C@H](CO[C@H]4O[C@H](CO)[C@@H](O)[C@H](O)[C@H]4O)[C@@H](O)[C@H](O)[C@H]3O)[C@H](O)[C@@H](O)[C@@H]2O)[C@H](O)[C@@H](O)[C@@H]1O [6,6′-di-O-α-D-Glc-trehalose, 6,6′-di-O-α-D-glucopyranosyl-α,α-trehalose]  54 Rel. %
14. OC[C@H]1O[C@H](OC[C@H]2O[C@H](O[C@H]3O[C@H](CO)[C@@H](O)[C@H](O)[C@H]3O)[C@H](O)[C@@H](O)[C@@H]2O)[C@H](O)[C@@H](O)[C@@H]1O [6-O-α-D-Glc-trehalose, 6-O-α-D-glucopyranosyl-α,α-trehalose]  56 Rel. %
15. OC[C@H]1O[C@@H](O[C@H]2[C@H](O)[C@@H](CO)OC(O)[C@@H]2O)[C@H](O)[C@@H](O)[C@@H]1O (stereo partly shown) [laminaribiose]  58 Rel. %
16. O=CC[C@@H](O)[C@H](O)[C@H](O)CO [2-deoxy-D-glucose]  59 Rel. %
17. CO[C@@H]1O[C@H](CO)[C@@H](O)[C@H](O)[C@H]1O [β-methyl-D-glucoside]  60 Rel. %
18. C[C@@H](O)[C@@H](O)[C@H](O)[C@@H](O)C=O [D-quinovose]  61 Rel. %
19. O=C(CO)[C@@H](O)[C@@H](O)[C@H](O)CO [D-tagatose]  65 Rel. %
20. maltotriose  65 Rel. %
21. OC[C@H]1O[C@@](CO)(O[C@H]2O[C@H](CO[C@@H]3O[C@H](CO)[C@@H](O)[C@H](O)[C@H]3O)[C@@H](O)[C@H](O)[C@H]2O)[C@@H](O)[C@@H]1O [gentianose]  66 Rel. %
22. OC[C@H]1O[C@H](OC[C@H]2O[C@H](O[C@]3(CO)O[C@H](CO)[C@@H](O)[C@@H]3O)[C@H](O)[C@@H](O)[C@@H]2O)[C@H](O)[C@@H](O)[C@H]1O [raffinose]  67 Rel. %
23. OC[C@H]1O[C@H](OC[C@H]2OC(O)(CO)[C@@H](O)[C@@H]2O)[C@H](O)[C@@H](O)[C@@H]1O (stereo partly shown) [palatinose]  69 Rel. %
24. CO[C@H]1O[C@H](CO)[C@@H](O)[C@H](O)[C@@H]1O [α-methyl-D-mannoside, α-methyl-D-mannopyranoside]  70 Rel. %
25. O=C[C@H](O)[C@@H](O)[C@@H](O)CO [L-arabinose]  75 Rel. %
26. OC[C@H]1O[C@H](OC[C@H]2O[C@@](CO)(O[C@H]3O[C@H](CO)[C@@H](O)[C@H](O)[C@H]3O)[C@@H](O)[C@@H]2O)[C@H](O)[C@@H](O)[C@H]1O [planteose]  76 Rel. %
27. O=C[C@@H](O)[C@@H](O)[C@@H](O)[C@H](O)CO [D-talose]  77 Rel. %
28. OC[C@H]1O[C@@H](O[C@H]2[C@H](O)[C@@H](O)C(O)O[C@@H]2CO)[C@H](O)[C@@H](O)[C@H]1O (stereo partly shown) [lactose]  79 Rel. %
29. OC[C@H]1O[C@@H](O[C@H]2C(O)O[C@H](CO)[C@@H](O)[C@@H]2O)[C@H](O)[C@@H](O)[C@@H]1O (stereo partly shown) [sophorose]  80 Rel. %
30. OC[C@H]1O[C@H](O[C@@H]2COC(O)(CO)[C@@H](O)[C@@H]2O)[C@H](O)[C@@H](O)[C@@H]1O (stereo partly shown) [leucrose]  81 Rel. %
31. OC[C@@H](O)[C@@H](O)[C@H](O)[C@@H](O)CO [sorbitol]  82 Rel. %
32. O=C[C@H](O)[C@@H](O)[C@@H](O)[C@H](O)CO [D-galactose]  83 Rel. %
33. O=C[C@H](O)[C@@H](O)[C@H](O)CO [D-xylose]  86 Rel. %
34. OC[C@H]1O[C@H](O[C@H]2[C@@H](O[C@H]3C(O)O[C@H](CO)[C@@H](O)[C@@H]3O)O[C@H](CO)[C@@H](O)[C@@H]2O)[C@H](O)[C@@H](O)[C@@H]1O (stereo partly shown) [kojitriose]  86 Rel. %
35. O=C(CO)[C@@H](O)[C@H](O)[C@@H](O)CO [L-sorbose]  88 Rel. %
36. CC(=O)N[C@H]1C(O)O[C@H](CO)[C@H](O)[C@@H]1O (stereo partly drawn) [N-acetyl-D-galactosamine]  88 Rel. %
37. O=CC[C@@H](O)[C@@H](O)[C@H](O)CO [2-deoxy-D-galactose]  89 Rel. %
38. CO[C@@H]1O[C@H](CO)[C@@H](O)[C@H](O)[C@@H]1O [β-methyl-D-mannoside]  89 Rel. %
39. OC[C@H]1O[C@H](OC[C@H]2O[C@H](OC[C@H]3O[C@H](O[C@]4(CO)O[C@H](CO)[C@@H](O)[C@@H]4O)[C@H](O)[C@@H](O)[C@@H]3O)[C@H](O)[C@@H](O)[C@H]2O)[C@H](O)[C@@H](O)[C@H]1O [stachyose]  89 Rel. %
40. O=C[C@@H](O)[C@H](O[C@@H]1O[C@H](CO)[C@H](O)[C@H](O)[C@H]1O)[C@H](O)CO [galactosyl-arabinose, 3-O-β-D-galactopyranosyl-D-arabinose]  90 Rel. %
41. OC[C@H]1O[C@@H]2OC[C@H]3O[C@H](O[C@@H]4[C@@H](O)[C@@H](OC[C@H]5O[C@H](O[C@H]([C@H]2O)[C@@H]1O)[C@H](O)[C@@H](O)[C@@H]5O)O[C@H](CO)[C@H]4O)[C@H](O)[C@@H](O)[C@@H]3O [cycloGlc4 (cyclo-alternan), cycloalternan]  90 Rel. %
42. CC(=O)N[C@H]1C(O)O[C@H](CO)[C@@H](O)[C@@H]1O (stereo partly drawn) [N-acetyl-D-glucosamine]  90 Rel. %
43. O=C[C@@H](O)[C@@H](O)[C@H](O)[C@H](O)CO [D-mannose]  90 Rel. %
44. OC[C@H]1O[C@@](CO)(O[C@H]2O[C@H](CO)[C@@H](O)[C@H](O)[C@H]2O)[C@@H](O[C@H]2O[C@H](CO)[C@@H](O)[C@H](O)[C@H]2O)[C@@H]1O [melezitose]  90 Rel. %
45. O=C[C@@H](O)[C@H](O)[C@H](O)[C@H](O)CO [D-altrose]  92 Rel. %
46. O=C[C@H](O)[C@H](O)[C@@H](O)CO [L-lyxose]  92 Rel. %
47. CC(=O)N[C@@H]1C(O)O[C@H](CO)[C@@H](O)[C@@H]1O (stereo partly drawn) [N-acetyl-D-mannosamine]  93 Rel. %
48. C[C@H](O)[C@@H](O)[C@@H](O)[C@H](O)C=O [L-fucose]  94 Rel. %
49. CO[C@@H]1O[C@H](CO)[C@H](O)[C@H](O)[C@H]1O [β-methyl-D-galactoside, β-methyl-D-galactopyranoside]  94 Rel. %
50. C[C@H](O)[C@H](O)[C@@H](O)[C@@H](O)C=O [L-rhamnose]  96 Rel. %
51. COC1OCC(O)C(O)C1O [β-methyl-D-xyloside]  96 Rel. %
52. OC[C@@H](O)[C@H](O)[C@@H](O)CO [xylitol]  97 Rel. %
53. O=C(CO)[C@H](O)[C@@H](O)[C@H](O)CO [D-sorbose]  97 Rel. %
54. O[C@H]1[C@H](O)[C@@H](O)[C@H](O)[C@@H](O)[C@H]1O [myo-inositol]  99 Rel. %
55. O=C[C@@H](O)[C@H](O)[C@H](O)CO [D-arabinose]  99 Rel. %
56. OC[C@@H](O)[C@@H](O)[C@H](O)[C@H](O)CO [mannitol]  100 Rel. %
57. OC[C@@H](O)[C@H](O)[C@H](O)[C@@H](O)CO [dulcitol]  101 Rel. %
58. OC[C@H]1O[C@H](O[C@H]2O[C@H](CO)[C@@H](O)[C@H](O)[C@H]2O)[C@H](O)[C@@H](O)[C@@H]1O [α,α-trehalose]  102 Rel. %

Same assay, conditions: acceptor added at the same initial level as other disaccharides

For OC[C@H]1O[C@H](O[C@@H]2COC(O)(CO)[C@@H](O)[C@@H]2O)[C@H](O)[C@@H](O)[C@@H]1O (stereo partly shown) [leucrose], the “reduction in the amount of alternan formed” value was 19%.

Same assay, conditions: text summary of Table I

With OC[C@H]1O[C@H](O[C@H]2[C@H](O)[C@@H](O)[C@H](O)O[C@@H]2CO)[C@H](O)[C@@H](O)[C@@H]1O [maltose] the “acceptor strength for alternansucrase, in words” value (from here on “acceptor strength”) was “excellent acceptor”.
gentiobiose was tested, and the “acceptor strength” value was “surprisingly good acceptor”.
In the case of OC[C@H]1O[C@H](OC[C@H]2O[C@H](O[C@]3(CO)O[C@H](CO)[C@@H](O)[C@@H]3O)[C@H](O)[C@@H](O)[C@@H]2O)[C@H](O)[C@@H](O)[C@H]1O [raffinose], the “acceptor strength” value is reported as “relatively good acceptors”.
OC[C@H]1O[C@H](OC[C@H]2O[C@H](O[C@H]3O[C@H](CO[C@H]4O[C@H](CO)[C@@H](O)[C@H](O)[C@H]4O)[C@@H](O)[C@H](O)[C@H]3O)[C@H](O)[C@@H](O)[C@@H]2O)[C@H](O)[C@@H](O)[C@@H]1O [6,6′-di-O-α-D-Glc-trehalose, 6,6′-di-O-α-D-glucopyranosyl-α,α-trehalose] was tested, and the “acceptor strength” value was “relatively good acceptors”.
For OC[C@H]1O[C@H](OC[C@H]2O[C@H](O[C@H]3O[C@H](CO)[C@@H](O)[C@H](O)[C@H]3O)[C@H](O)[C@@H](O)[C@@H]2O)[C@H](O)[C@@H](O)[C@@H]1O [6-O-α-D-Glc-trehalose, 6-O-α-D-glucopyranosyl-α,α-trehalose], the “acceptor strength” value was “relatively good acceptors”.
OC[C@H]1O[C@H](O[C@H]2O[C@H](CO)[C@@H](O)[C@H](O)[C@H]2O)[C@H](O)[C@@H](O)[C@@H]1O [α,α-trehalose] was tested, and the “acceptor strength” value was “not an acceptor”.
With OC[C@H]1O[C@H](OCC2O[C@@H](O)[C@H](O)[C@@H](O)[C@@H]2O)[C@H](O)[C@@H](O)[C@H]1O (stereo partly shown) [melibiose] the “acceptor strength” value was “relatively good acceptors”.
OC[C@@H](O)[C@@H](O[C@H]1O[C@H](CO)[C@@H](O)[C@H](O)[C@H]1O)[C@H](O)[C@@H](O)CO [maltitol] was tested, and the “acceptor strength” value was “excellent acceptor”.

From patent US7182954B1, “Prebiotic oligosaccharides via alternansucrase acceptor reactions” (priority 2003, dated 2007)
